The numbers were not newly measured in US9101541B2 (Cadila Healthcare Limited, priority 2010, dated 2015), which cites them from elsewhere.

Structures are written as SMILES.

For data set [1] the following is noted: oral administration.

Turning to `CO[C@H]1C[C@@H]2CC[C@@H](C)[C@@](O)(O2)C(=O)C(=O)N2CCCC[C@H]2C(=O)O[C@H]([C@H](C)C[C@@H]2CC[C@@H](O)[C@H](OC)C2)CC(=O)[C@H](C)/C=C(\C)[C@@H](O)[C@@H](OC)C(=O)[C@H](C)C[C@H](C)/C=C/C=C/C=C/1C` [Sirolimus, (3S,6R,7E,9R,10R,12R,14S,15E,17E,19E,21S,23S,26R,27R,34aS)-9,10,12,13,14,21,22,23,24,25,26,27,32,33,34,34a-hexadecahydro-9,27-dihydroxy-3-[(1R)-2-[(1S,3R,4R)-4-hydroxy-3-methoxycyclohexyl]-1-methylethyl]-10,21-dimethoxy-6,8,12,14,20,26-hexamethyl-23,27-epoxy-3H-pyrido[2,1-c][1,4]oxaazacyclohentriacontine-1,5,11,28,29 (4H,6H,31H)-pentone], the “oil and water solubility” value was “poor oil and water solubility”. Besides, the “time to maximum blood concentrations after dosing” value in data set [1] was 0.5 to 2.3 h. In addition, the BCS class result (Pharmaceutical Research, Vo. 22, No. 1, January 2005, Chi-Yuan Wu et al.) is “BCS Class 2”.
